The values that follow come from patent US4307100A (priority 1978, dated 1981).

The test system of data set [1] is L1210 leukaemia. Put plainly: Activity in the L1210 leukaemia test on mice. Type of data set: in vivo, mice (DBA/2 female). The settings on record: tartrate. Here is the method:
Table III below summarises the results obtained with the compound of Example 1 in the form of its tartrate in the treatment of L1210 leukaemia:
(§1) Graft→treatment interval: 24 h.
Conc. 0.5 and 1 mg/ml in physiological serum.

Data set [2] has as its system tubulin. The experiment in a line: Spiralisation of tubulin (S50). The settings on record: for S50/S50 vinblastine: tartrates, tubulin concentration ~ 2 mg/ml, ratio to vinblastine. In kind it is biochemical, pigs. The source says:
(§2) The receiver of anti-tumoral indolic alkaloids of the vinblastine type is tubulin.
(§3) It is readily extracted from pigs' brains where it preresents 10% of the soluble proteins.
(§4) The polymerisation of tubulin into microtubules may readily be followed by means of a UV spectrophotometer observing at 350 nm. The maximum polymerisation velocity is thus determined; it is reduced by the addition of inhibitors of the vinblastine type and a concentration, I50, reducing the polymerisation velocity by half is obtained for each substance tested. A second effect of these products is taken into consideration: with higher doses, after complete inhibition of polymerisation, spiralisation of the tubulin is observed (verified by electron microscopy) and a new concentration, S50, corresponding to the appearance of 50% of the phenomenon is determined.
(§5) The results of each product are always compared with those of the vinblastine used as reference.
(§6) The results of the interaction tests with
(§7) tubulin carried out on the tartrates are summarised
(§8) in the following Table (tubulin concentration
(b) S50 : concentration of the product required for inducing 50% of
the maximum spiralisation of the tubulin.

Data set [3] has as its system tubulin. Put plainly: Inhibition of the polymerisation of tubulin (UV, 350 nm). In kind it is biochemical, pigs. The settings on record: for I50/I50 vinblastine: tartrates, tubulin concentration ~ 2 mg/ml, ratio to vinblastine.
From the text: as §2, §3, §4, §5, §6, §7, §8
(a) I50 : concentration of the product inhibiting 50% of the velocit
of polymerisation of the tubulin. I50 vinblastine = 2,10^-6.

For data set [4], the system named is leukaemia studied. Put plainly: Leukaemia tests on mice, overall conclusion. In kind it is in vivo. The settings on record: in words, compared with vincristine and vinblastine. The source says:
(2) Activity in the P388 leukaemia test on mice
(3) Activity in the L1210 leukaemia test on mice

Data set [5] can be described thus: Toxicity of the product of Example 1 in tartrate form, single dose, mortality over 35 days. In kind it is in vivo, DBA/2 female mice. The settings on record: for Distribution of mortality, 1: column 1 (day); for Distribution of mortality, 6: column 6 (day); for Distribution of mortality, 3: column 3 (day). The source says:
A single dose of the test product is intraperitoneally administered to DBA/2 .female. mice and the mortality rate studied over a period of 35 days.

For data set [6], the system named is P388 leukaemia. The experiment in a line: Activity in the P388 leukaemia test on mice. In kind it is in vivo, mice (DBA/2 female). The settings on record: tartrate; for ratio of T and C (formula drawing 15): C = average life of treated, control group; for Mean survival period: control 10.5 ± 0.8. On the procedure:
Table II below exemplifies the results obtained with the compound of Example 1 in the form of its tartrate in the treatment of P388 leukaemia.
T=average life (in days) of the mice of the treated group
C=average life (in days) of the mice of the control group
Graft: P 388 (10^6 cell./mice ip)
as §1

The conditions of data set [7]: comparison value, cited from earlier work; for DL50: i.v.

Bounds are passed on as bounds.

Usually mortality stands for the percentage killed. A high value points to fewer survivors. Regarding `CCC1=C[C@@H]2CN(C1)Cc1c([nH]c3ccccc13)[C@@](C(=O)OC)(c1cc3c(cc1OC)N(C)[C@H]1[C@@](O)(C(=O)OC)[C@H](OC(C)=O)[C@]4(CC)C=CCN5CC[C@]31[C@@H]54)C2` [5'-noranhydrovinblastine], the “I.L.S. (formula drawing 16)” value is 40 in data set [1] (5 mg/kg i.p.); 57 in data set [1] (10 mg/kg i.p., first line); 50 in data set [1] (10 mg/kg i.p., second line); 65 in data set [1] (25 mg/kg i.p., first line); 57 in data set [1] (25 mg/kg i.p., second line). Also, the “ratio (formula drawing 17)” value in data set [1] (5 mg/kg i.p.) stood at 140; in data set [1] (10 mg/kg i.p., first value), 157; in data set [1] (10 mg/kg i.p., second value), 150; in data set [1] (25 mg/kg i.p., first value), 165; in data set [1] (25 mg/kg i.p., second value) it was 157. The “Mean survival period” value in data set [1] (5 mg/kg i.p., control 8.6 ± 0.4) is listed as 12.0 ± 0.9 days; in data set [1] (10 mg/kg i.p., first line, control 8.6 ± 0.4), 13.5 ± 0.9 days; in data set [1] (10 mg/kg i.p., second line, control 8.6 ± 0.7), 12.9 ± 1.3 days; in data set [1] (25 mg/kg i.p., first line, control 8.6 ± 0.4), 14.2 days; in data set [1] (25 mg/kg i.p., second line, control 8.6 ± 0.7), 13.5 days; in data set [6] (5 mg/kg i.p.), 13.6 ± 0.8 days. For the same compound, the “Mean survival period” value is reported as 17.9 ± 0.9 days in data set [6] (10 mg/kg i.p.) and ≥ 24.3 days in data set [6] (25 mg/kg i.p.). Besides, the “"spiralising" activity” value in data set [2] (in words) is listed as “does not have any "spiralising" activity”. Further, in data set [2], the S50/S50 vinblastine is recorded as 0.8-1.0. Also, the “activity in regard to the inhibition of polymerisation” value in data set [3] (in words, compared with vinblastine) is given as “activity similar to vinblastine”. In addition, the I50/I50 vinblastine in data set [3] is recorded as 0.7. Besides, in data set [4], the “activity on the leukaemia studied” value was “more active than vincristine and vinblastine”. Further, the “Distribution of mortality, 1” value in data set [5] (50 mg/kg i.p.) is 1; in data set [5] (75 mg/kg i.p.), 3. Also, the “Distribution of mortality, 4” value in data set [5] (50 mg/kg i.p., column 4 (day)) is reported as 1. Moreover, the “Distribution of mortality, 6” value in data set [5] (50 mg/kg i.p.) and in data set [5] (75 mg/kg i.p.) was 1 in each case. The “Distribution of mortality, 9” value in data set [5] (50 mg/kg i.p., column 9 (day)) came out at 1. In addition, the “Mortality over 35 days” value in data set [5] (50 mg/kg single i.p. dose, tartrate, 5 mice) is on record as 4/5; in data set [5] (100 mg/kg single i.p. dose, tartrate, 3 mice), 3/3. Further, the “Distribution of mortality, 3” value in data set [5] (75 mg/kg i.p.) is 1; in data set [5] (100 mg/kg i.p.), 3. The “toxicity compared with vincristine and vinblastine” value in data set [5] (in words) is listed as “far less toxic”. Moreover, the mortality at 840 h in data set [5] (mouse, in vivo, ip, 25 mg/kg single i.p. dose, tartrate, 5 mice) stood at 0%. In data set [5] (single i.p. dose, tartrate, DBA/2 female mice, 35 days), the DL0 is given as 25 mg/kg. Besides, the “I.L.S. (formula drawing 14)” value is recorded as 29.5 in data set [6] (5 mg/kg i.p.), 70.5 in data set [6] (10 mg/kg i.p.) and ≥ 131.4 in data set [6] (25 mg/kg i.p.). Besides, the “ratio of T and C (formula drawing 15)” value was 129.5 in data set [6] (5 mg/kg i.p.), 170.5 in data set [6] (10 mg/kg i.p.) and ≥ 231.4 in data set [6] (25 mg/kg i.p.).
Regarding `CCC12CN3Cc4c([nH]c5ccccc45)[C@@](C(=O)OC)(c4cc5c(cc4OC)N(C=O)[C@H]4[C@@](O)(C(=O)OC)[C@H](OC(C)=O)[C@]6(CC)C=CCN7CC[C@]54[C@@H]76)C[C@@H](C3)C1O2` (stereo partly shown) [5'-nor-Na-desmethyl Na-formyl leurosine], the S50/S50 vinblastine in data set [2] stood at 2.5. In addition, the I50/I50 vinblastine in data set [3] amounted to 2.77.
For `CCC12CN3Cc4c([nH]c5ccccc45)[C@@](C(=O)OC)(c4cc5c(cc4OC)N(C)[C@H]4[C@@](O)(C(=O)OC)[C@H](OC(C)=O)[C@]6(CC)C=CCN7CC[C@]54[C@@H]76)C[C@@H](C3)C1O2` (stereo partly shown) [5'-norleurosine] the same measures were 3 and 1.0.
Regarding `CC[C@]1(O)C[C@H]2CN(CCc3c([nH]c4ccccc34)[C@@](C(=O)OC)(c3cc4c(cc3OC)N(C=O)[C@H]3[C@@](O)(C(=O)OC)[C@H](OC(C)=O)[C@]5(CC)C=CCN6CC[C@]43[C@@H]65)C2)C1` [vincristine], the DL10 in data set [7] (route not given) is reported as 3 mg/kg. In addition, the DL50 in data set [7] was 2 mg/kg.
In the case of `CCC1=C[C@@H]2CN(C1)Cc1c([nH]c3ccccc13)[C@@](C(=O)OC)(c1cc3c(c(Cl)c1OC)N(C)[C@H]1[C@@](O)(C(=O)OC)[C@H](OC(C)=O)[C@]4(CC)C=CCN5CC[C@]31[C@@H]54)C2` [12-chloro-5'-noranhydrovinblastine], in data set [3], the I50/I50 vinblastine is recorded as 13.
Consider `CCC1=C[C@@H]2CN(CCc3c([nH]c4ccccc34)[C@@](C(=O)OC)(c3cc4c(cc3OC)N(C=O)[C@H]3[C@@](O)(C(=O)OC)[C@H](OC(C)=O)[C@]5(CC)C=CCN6CC[C@]43[C@@H]65)C2)C1` [anhydrovincristine, reference compound], for which, in data set [2], the S50/S50 vinblastine was found to be 1.5. For the same compound, in data set [3], the I50/I50 vinblastine was 1.8.
On to `CC[C@]1(O)C[C@@H]2CN(CCc3c([nH]c4ccccc34)[C@@](C(=O)OC)(c3cc4c(cc3OC)N(C)[C@H]3[C@@](O)(C(=O)OC)[C@H](OC(C)=O)[C@]5(CC)C=CCN6CC[C@]43[C@@H]65)C2)C1` [vinblastine, reference compound], for which the DL50 in data set [7] is recorded as 17 mg/kg. Moreover, the IC50 in data set [3] (reference vinblastine, unit inferred, read-out: I50: concentration of the product inhibiting 50% of the velocity of polymerisation of the tubulin (converted)) is […].
With `CCC1=C[C@@H]2CN(C1)Cc1c([nH]c3ccccc13)[C@@](C(=O)OC)(c1cc3c(cc1OC)N(C=O)[C@H]1[C@@](O)(C(=O)OC)[C@H](OC(C)=O)[C@]4(CC)C=CCN5CC[C@]31[C@@H]54)C2` [5'-noranhydrovincristine], in data set [2], the S50/S50 vinblastine is on record as 0.66. In addition, the I50/I50 vinblastine in data set [3] is 0.8.
